# Test results as given in patent US20250290117A1, “MOLECULAR PHENOTYPIC ANTIMICROBIAL SUSCEPTIBILITY TESTING” (priority 2024, published 2025).
# Columns and labels:
# [1] = test system: pathogens of clinical samples; test: Molecular phenotypic antimicrobial susceptibility test of clinical samples, extraction DNA purification step prior to PCR (Table 6); assay type: cell-based
# Procedure, shortened: (§1)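 Semi-quantitative PCR read-out: growth was taken as resistance and its absence as sensitivity, with DNA either purified (e.g. bead-based) or amplified directly from lysed sample without extraction. Before PCR, 0.5 McFarland dilutions of incubated clinical specimens were held 12-16 hours with breakpoint-level antimicrobials in culture media, beside a drug-free control.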
# [2] = test system: pathogens of clinical samples; test: Molecular phenotypic antimicrobial susceptibility test of clinical samples, direct PCR without a separate DNA purification step (Table 6); assay type: cell-based
# Procedure, shortened: as §1
# [3] = test system: E. coli; test: Molecular phenotypic antimicrobial susceptibility test with direct PCR (no extraction DNA purification step); assay type: cell-based, Escherichia coli
# [4] = E. coli, clinical sample of r10-r24
# [5] = E. coli, clinical sample of r158-r172
# [6] = K. aerogenes, clinical sample of r136-r150
# [7] = K. pneumoniae, clinical sample of r121-r135
# [8] = M. morganii, clinical sample of r55-r69
# [9] = M. morganii, clinical sample of r70-r84
# [10] = P. mirabilis, clinical sample of r25-r39
# [11] = P. mirabilis, clinical sample of r40-r54
# [12] = E. coli isolate JJ1887, direct PCR, Ct at control (average) 12.832
# [13] = E. coli isolate JJ1887, direct PCR, at sensitive breakpoint
SMILES,"Molecular Antibiotic Susceptibility Result [1, 4]","Molecular Antibiotic Susceptibility Result [1, 5]","Molecular Antibiotic Susceptibility Result [1, 6]","Molecular Antibiotic Susceptibility Result [1, 7]","Molecular Antibiotic Susceptibility Result [1, 8]","Molecular Antibiotic Susceptibility Result [1, 9]","Molecular Antibiotic Susceptibility Result [1, 10]","Molecular Antibiotic Susceptibility Result [1, 11]","Molecular Antibiotic Susceptibility Result [2, 4]","Molecular Antibiotic Susceptibility Result [2, 5]","Molecular Antibiotic Susceptibility Result [2, 6]","Molecular Antibiotic Susceptibility Result [2, 7]","Molecular Antibiotic Susceptibility Result [2, 8]","Molecular Antibiotic Susceptibility Result [2, 9]","Molecular Antibiotic Susceptibility Result [2, 10]","Molecular Antibiotic Susceptibility Result [2, 11]","Ct at Sensitive Breakpoint [3, 12]","Molecular Antimicrobial Susceptibility Result [3, 13]",other results
Cc1nnc(SCC2=C(C(=O)O)N3C(=O)[C@@H](NC(=O)Cn4cnnn4)[C@H]3SC2)s1 [Cefazolin],Sensitive (Antimicrobial wells with pathogen load detected below the control wells (typically >2 cycle thresholds later) may be reported as Sensitive),Sensitive (Antimicrobial wells with pathogen load detected below the control wells (typically >2 cycle thresholds later) may be reported as Sensitive),Resistant,Sensitive (Antimicrobial wells with pathogen load detected below the control wells (typically >2 cycle thresholds later) may be reported as Sensitive),Resistant,Resistant,Resistant,Sensitive (Antimicrobial wells with pathogen load detected below the control wells (typically >2 cycle thresholds later) may be reported as Sensitive),Sensitive (Antimicrobial wells with pathogen load detected below the control wells (typically >2 cycle thresholds later) may be reported as Sensitive),Sensitive (Antimicrobial wells with pathogen load detected below the control wells (typically >2 cycle thresholds later) may be reported as Sensitive),Sensitive (Antimicrobial wells with pathogen load detected below the control wells (typically >2 cycle thresholds later) may be reported as Sensitive),Sensitive (Antimicrobial wells with pathogen load detected below the control wells (typically >2 cycle thresholds later) may be reported as Sensitive),Resistant,Resistant,Sensitive (Antimicrobial wells with pathogen load detected below the control wells (typically >2 cycle thresholds later) may be reported as Sensitive),Sensitive (Antimicrobial wells with pathogen load detected below the control wells (typically >2 cycle thresholds later) may be reported as Sensitive),12.804,Resistant,"Molecular Antimicrobial Susceptibility Result ([3]; E. coli #1 - WDCM 00090 - 6.2×E3, specimen with <10,000 cells/mL, direct PCR after 16 hours of incubation): Sensitive (Antimicrobial wells with pathogen load detected below the control wells (typically >2 cycle thresholds later) may be reported as Sensitive); Ct at Sensitive Breakpoint ([3]; E. coli #1 - WDCM 00090 - 6.2×E3, specimen with <10,000 cells/mL, direct PCR after 16 hours of incubation, Ct at control 13.787): 25.72; Molecular Antimicrobial Susceptibility Result ([3]; E. coli #2 - WDCM 00090 - 6.2×E3, specimen with <10,000 cells/mL, direct PCR after 16 hours of incubation): Sensitive (Antimicrobial wells with pathogen load detected below the control wells (typically >2 cycle thresholds later) may be reported as Sensitive); Ct at Sensitive Breakpoint ([3]; E. coli #2 - WDCM 00090 - 6.2×E3, specimen with <10,000 cells/mL, direct PCR after 16 hours of incubation, Ct at control 13.46): 26.56"
CO/N=C(\C(=O)N[C@@H]1C(=O)N2C(C(=O)[O-])=C(C[N+]3(C)CCCC3)CS[C@H]12)c1csc(N)n1 [Cefepime],Sensitive (Antimicrobial wells with pathogen load detected below the control wells (typically >2 cycle thresholds later) may be reported as Sensitive),Sensitive (Antimicrobial wells with pathogen load detected below the control wells (typically >2 cycle thresholds later) may be reported as Sensitive),Sensitive (Antimicrobial wells with pathogen load detected below the control wells (typically >2 cycle thresholds later) may be reported as Sensitive),Sensitive (Antimicrobial wells with pathogen load detected below the control wells (typically >2 cycle thresholds later) may be reported as Sensitive),Sensitive (Antimicrobial wells with pathogen load detected below the control wells (typically >2 cycle thresholds later) may be reported as Sensitive),Sensitive (Antimicrobial wells with pathogen load detected below the control wells (typically >2 cycle thresholds later) may be reported as Sensitive),Sensitive (Antimicrobial wells with pathogen load detected below the control wells (typically >2 cycle thresholds later) may be reported as Sensitive),Sensitive (Antimicrobial wells with pathogen load detected below the control wells (typically >2 cycle thresholds later) may be reported as Sensitive),Sensitive (Antimicrobial wells with pathogen load detected below the control wells (typically >2 cycle thresholds later) may be reported as Sensitive),Sensitive (Antimicrobial wells with pathogen load detected below the control wells (typically >2 cycle thresholds later) may be reported as Sensitive),Sensitive (Antimicrobial wells with pathogen load detected below the control wells (typically >2 cycle thresholds later) may be reported as Sensitive),Sensitive (Antimicrobial wells with pathogen load detected below the control wells (typically >2 cycle thresholds later) may be reported as Sensitive),Sensitive (Antimicrobial wells with pathogen load detected below the control wells (typically >2 cycle thresholds later) may be reported as Sensitive),Sensitive (Antimicrobial wells with pathogen load detected below the control wells (typically >2 cycle thresholds later) may be reported as Sensitive),Sensitive (Antimicrobial wells with pathogen load detected below the control wells (typically >2 cycle thresholds later) may be reported as Sensitive),Sensitive (Antimicrobial wells with pathogen load detected below the control wells (typically >2 cycle thresholds later) may be reported as Sensitive),12.796,Resistant,
